From US20240226066A1, “CARDIOPROTECTION BY AUTOPHAGY INDUCTION AND METABOLIC REPROGRAMMING” (UNIVERSITE PARIS-SACLAY, priority 2021, published 2024)

How the values were obtained:
Assay type in all cases: cell-based, rat
DRP-1 = test: Western blot of DRP-1 phosphorylation (Ser616) in RNVCs
Procedure: FIG. 6D: Drp-1 and P-Drp-1 and MFN2 protein levels in RNVCs analyzed by western blotting. *, p<0.05, **, p<0.01, ***, p<0.001 with respect to DMSO. The experiments were reproduced 3 times. Representative western blotting images and quantification of three independent experiments are presented as mean±SEM with single-factor ANOVA, and multiple Sidak comparisons.
(§1) The H9C2 cells and RNVCs were detached in LB containing: 50 mM Tris, 150 mM NaCl, 1 mM EDTA, 0.5% deoxycholate, 1% Triton X 100, 0.1% SDS (pH 8.0). The cells were collected and placed on ice for 30 minutes. The cells were then centrifuged at 2000 g for 20 minutes at for 4° C. The supernatant was transferred to a new tube and stored on ice. The protein concentration was determined by BCA assay. The protein samples were diluted with sample buffer (2× Laemmli, Sigma), mixed, and heated for 5 minutes at 95° C. […] The images were recorded with a gel imaging system (Bio Rad). […]
(§2) Due to the importance of mitochondria and reactive oxygen species (ROS) levels in the fate of cardiomyocyte cells, the hypothesis that the compounds could impact the mitochondrial network was explored. […] Thus, the mitochondrial network and the individual mitochondria were then analyzed using the IMARIS software.

H9C2 cells [1] = test: Mitochondrial morphology and abundance by transmission electron microscopy; conditions: compared to DMSO; for mitochondrial number, size and morphology by transmission electron microscopy: 1 μM
Procedure: The cells were treated with a vehicle (0.01% DMSO), 1 μM digoxin, 1 μM SG6163F, 10 μM SG6163F, fixed with glutaraldehyde and analyzed by transmission electron microscopy. The cells treated with digoxin and with 10 μM SG6163F have many shorter round mitochondria compared with the control which has long thin mitochondria (FIG. 7B, FIG. 7D versus FIG. 7A).
Transmission electron microscopy. For ultrastructural analysis, the cells were fixed in 1.6% glutaraldehyde in a 0.1 M phosphate buffer, rinsed in a 0.1 M cacodylate buffer, and post-fixed for 1 h in 1% osmium tetroxide and 1% potassium ferrocyanide in a 0.1 M cacodylate buffer to improve the coloration of the membranes. The cells were rinsed in distilled water, dehydrated in alcohols and finally embedded in epoxy resin. Contrasting ultrafine sections (70 nm) were analyzed under a JEOL 1400 transmission electron microscope with a Morada Olympus CCD camera.
Due to the importance of mitochondria and reactive oxygen species (ROS) levels in the fate of cardiomyocyte cells, the hypothesis that the compounds could impact the mitochondrial network was explored. Following treatment of the RNVCs with the compounds tested, the mitochondrial network was stained with 200 nM of Mitotracker and the cell volume with 4 μM of calcein-AM. Thus, the mitochondrial network and the individual mitochondria were then analyzed using the IMARIS software.

H9C2 cells [2] = test: Seahorse XF Cell Mito stress test (OCR)
Procedure: FIG. 8B: the H9c2 cells were treated with the compounds for 6 h, then a mitochondrial respiration stress test was carried out.
The XFe96 extracellular flow analyzer (Seahorse Biosciences, North Billerica, MA, USA) was used to measure the bioenergetic function of H9C2 cardiomyocytes. The H9C2 cells were seeded at 20 000 cells per well in XF96 cell culture microplates; all the pretreatments were carried out with serum-free cell culture medium. The Agilent Seahorse XF glycolysis stress test was performed to measure glycolytic function in the H9C2 cells; the extracellular acidification rate (ECAR) was measured sequentially by 3 injections, 10 mM glucose, 2 μM oligomycin and 50 mM 2-deoxy-D-glucose (2-DG). The Agilent Seahorse XF Cell Mito stress test measured key parameters of mitochondrial function by directly measuring the oxygen consumption rate (OCR) of the H9C2 cells. The test used the built-in injection ports on XF sensor cartridges to add respiration modulators into the cell well during the test in order to reveal key parameters of mitochondrial function. Oligomycin at 2 μM was injected first after the baseline measurements. Then 1 μM of […] (FCCP) was injected. The third injection corresponds to 0.5 μM of antimycin A, to stop mitochondrial respiration. The oxidation of the exogenous fatty acids was measured simultaneously using the XF palmitate-BSA FAO substrate kit with the mitochondrial stress test on XF cells. The substrate-limited medium is DMEM with 0.5 mM glucose, 1 mM GlutaMAX, 0.5 mM carnitine and 1% fetal calf serum. Carnitine was added freshly on the day of the change of medium. The FAO test medium contains 111 mM NaCl, 4.7 mM KCl, 1.25 mM CaCl2, 2 mM MgSO4, 1.2 mM NaH2PO4, supplemented with 2.5 mM glucose, 0.5 mM carnitine and 5 mM HEPES on the day of the test, adjusted to pH 7.4 at 37° C. The H9C2 cells were seeded at 20 000 cells per well in XF96 cell culture microplates. […]
Next, the energy metabolism was analyzed in real time using the Seahorse technology in H9C2 cells.

MFN1 = test: Western blot of MFN1 in RNVCs
Procedure: (§3) FIG. 6C: MFN1 and MFN2 protein levels in RNVCs analyzed by western blotting.
as §1, §2

MFN2 = test: Western blot of MFN2 in RNVCs
Procedure: as §3, §1, §2

O=C1NC(c2ccccc2)=N/C1=C\c1cc2ccccc2c2ccccc12 [SG6163F]
phosphorylation of DRP-1 at Ser616, (DRP1-P)/(DRP-1 total) ratio (DRP-1): stimulated fission by phosphorylation of DRP-1 | mitochondrial number, size and morphology by transmission electron microscopy (H9C2 cells [1]): did not affect the morphology of the mitochondria | mitochondrial number and size by transmission electron microscopy (H9C2 cells [1]; 10 μM): increase in the number of mitochondria and a decrease in their size | OXPHOS (H9C2 cells [2]; independently of the substrates): boost OXPHOS

C[C@]12CC[C@H](O)C[C@H]1CC[C@@H]1[C@@H]2CC[C@]2(C)[C@@H](C3=CC(=O)OC3)CC[C@]12O [digitoxigenin]
expression of fusion protein MFN1 (MFN1): decreased | expression of fusion protein MNF2 (MFN2): decreased | ATP production by oxidative phosphorylation (OXPHOS) (H9C2 cells [2]; glucose and pyruvate as substrates, 6 h): improved ATP production by oxidative phosphorylation

C[C@H]1O[C@@H](O[C@H]2[C@@H](O)C[C@H](O[C@H]3[C@@H](O)CC(O[C@H]4CC[C@@]5(C)[C@H](CC[C@@H]6[C@@H]5C[C@@H](O)[C@]5(C)[C@@H](C7=CC(=O)OC7)CC[C@]65O)C4)O[C@@H]3C)O[C@@H]2C)C[C@H](O)[C@@H]1O (some centres unmarked) [digoxin]
expression of fusion protein MFN1 (MFN1): decreased | expression of fusion protein MNF2 (MFN2): decreased | phosphorylation of DRP-1 at Ser616, (DRP1-P)/(DRP-1 total) ratio (DRP-1): stimulated fission by phosphorylation of DRP-1 | mitochondrial number, size and morphology by transmission electron microscopy (H9C2 cells [1]): increase in the number of mitochondria and a decrease in their size
